In ChEMBL document CHEMBL1201862, “PubChem BioAssay data set” (2004):
Activity calls are given as the source filed them.

Key:
[1] = biological target: Mu-type opioid receptor (Homo sapiens, UniProt P35372); format: functional, cell-based;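 also: U2OS cells with beta-arrestin recruitment to OPRM1 by beta-gal complementation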
[2] = biological target: 5-hydroxytryptamine receptor 2A (Mus musculus, UniProt P35363); format: functional, cell-based;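 also: CHO-K1 cells with tagged receptor and beta-arrestin; agonist potency measured as compound-induced activation of the receptor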
Sequence of 5-hydroxytryptamine receptor 2A (P35363 whole entry): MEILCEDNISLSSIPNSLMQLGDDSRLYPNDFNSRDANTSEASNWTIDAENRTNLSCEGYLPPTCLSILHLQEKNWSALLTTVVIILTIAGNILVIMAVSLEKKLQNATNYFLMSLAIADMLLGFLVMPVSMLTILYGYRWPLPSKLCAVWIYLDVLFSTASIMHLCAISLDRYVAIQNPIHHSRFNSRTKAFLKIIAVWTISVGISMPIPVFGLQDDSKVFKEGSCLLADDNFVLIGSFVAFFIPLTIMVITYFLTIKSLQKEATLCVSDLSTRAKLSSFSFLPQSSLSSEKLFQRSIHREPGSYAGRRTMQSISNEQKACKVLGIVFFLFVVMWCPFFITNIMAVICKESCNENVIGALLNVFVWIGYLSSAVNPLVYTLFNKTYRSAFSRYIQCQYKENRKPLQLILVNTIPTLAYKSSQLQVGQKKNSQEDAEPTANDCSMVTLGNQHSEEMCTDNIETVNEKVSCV

[3] = biological target: Melanocortin receptor 4 (Homo sapiens, UniProt P32245); format: functional, cell-based;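 also: Cell-based assay with luminescence read-out, confirmatory dose-response testing for agonist activity of biased ligands at MC4R; human U2OS cells with tagged receptor and beta-arrestin; potency of agonists that increase receptor coupling to beta-arrestin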
Sequence of Melanocortin receptor 4 (P32245 whole entry): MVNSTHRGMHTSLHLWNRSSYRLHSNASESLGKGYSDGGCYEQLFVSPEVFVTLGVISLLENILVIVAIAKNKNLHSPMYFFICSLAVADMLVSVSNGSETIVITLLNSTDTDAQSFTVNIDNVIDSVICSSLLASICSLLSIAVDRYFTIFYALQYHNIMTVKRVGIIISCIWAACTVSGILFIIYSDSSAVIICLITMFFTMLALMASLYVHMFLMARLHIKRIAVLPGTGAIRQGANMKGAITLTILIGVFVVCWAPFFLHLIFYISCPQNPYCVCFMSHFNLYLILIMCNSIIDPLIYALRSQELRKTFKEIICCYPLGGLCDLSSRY

[4] = biological target: Potassium voltage-gated channel subfamily KQT member 2 (Rattus norvegicus, UniProt O88943); test: blockers of KCNQ2 channel current – cell-based, automated electrophysiology, set II, rat KCNQ2, dose response (AID 588637); format: functional
Sequence of Potassium voltage-gated channel subfamily KQT member 2 (O88943 whole entry): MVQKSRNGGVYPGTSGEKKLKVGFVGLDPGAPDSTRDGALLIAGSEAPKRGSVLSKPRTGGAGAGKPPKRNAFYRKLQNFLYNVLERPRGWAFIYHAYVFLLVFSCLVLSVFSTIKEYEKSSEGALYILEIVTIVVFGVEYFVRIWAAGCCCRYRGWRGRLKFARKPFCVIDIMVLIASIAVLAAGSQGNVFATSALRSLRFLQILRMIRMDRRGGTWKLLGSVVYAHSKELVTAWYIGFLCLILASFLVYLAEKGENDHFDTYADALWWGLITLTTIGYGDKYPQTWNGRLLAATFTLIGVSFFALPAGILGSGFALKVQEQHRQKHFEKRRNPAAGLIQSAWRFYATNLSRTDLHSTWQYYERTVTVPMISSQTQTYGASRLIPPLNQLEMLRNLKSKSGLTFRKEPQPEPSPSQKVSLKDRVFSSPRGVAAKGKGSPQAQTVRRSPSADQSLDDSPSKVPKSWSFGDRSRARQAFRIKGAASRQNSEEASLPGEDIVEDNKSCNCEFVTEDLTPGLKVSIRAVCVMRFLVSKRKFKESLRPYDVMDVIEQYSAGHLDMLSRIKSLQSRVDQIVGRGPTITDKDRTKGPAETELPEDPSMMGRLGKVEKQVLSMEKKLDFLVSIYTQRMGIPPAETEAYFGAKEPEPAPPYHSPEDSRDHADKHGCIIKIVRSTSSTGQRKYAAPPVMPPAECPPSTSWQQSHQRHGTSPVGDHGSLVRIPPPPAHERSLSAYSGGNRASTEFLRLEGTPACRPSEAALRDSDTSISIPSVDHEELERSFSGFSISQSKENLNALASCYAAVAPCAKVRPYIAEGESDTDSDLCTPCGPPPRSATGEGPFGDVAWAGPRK

[5] = reduced cellular PGC1a acetyl-lysine signal – cell-based, cherry-picked samples, dose response (AID 720514); format: functional;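 also: potency may reflect raised or lowered acetylation signal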
[6] = biological target: Beta-galactosidase (Escherichia coli, UniProt Q8VNN2); format: functional
Sequence of Beta-galactosidase (Q8VNN2 whole entry): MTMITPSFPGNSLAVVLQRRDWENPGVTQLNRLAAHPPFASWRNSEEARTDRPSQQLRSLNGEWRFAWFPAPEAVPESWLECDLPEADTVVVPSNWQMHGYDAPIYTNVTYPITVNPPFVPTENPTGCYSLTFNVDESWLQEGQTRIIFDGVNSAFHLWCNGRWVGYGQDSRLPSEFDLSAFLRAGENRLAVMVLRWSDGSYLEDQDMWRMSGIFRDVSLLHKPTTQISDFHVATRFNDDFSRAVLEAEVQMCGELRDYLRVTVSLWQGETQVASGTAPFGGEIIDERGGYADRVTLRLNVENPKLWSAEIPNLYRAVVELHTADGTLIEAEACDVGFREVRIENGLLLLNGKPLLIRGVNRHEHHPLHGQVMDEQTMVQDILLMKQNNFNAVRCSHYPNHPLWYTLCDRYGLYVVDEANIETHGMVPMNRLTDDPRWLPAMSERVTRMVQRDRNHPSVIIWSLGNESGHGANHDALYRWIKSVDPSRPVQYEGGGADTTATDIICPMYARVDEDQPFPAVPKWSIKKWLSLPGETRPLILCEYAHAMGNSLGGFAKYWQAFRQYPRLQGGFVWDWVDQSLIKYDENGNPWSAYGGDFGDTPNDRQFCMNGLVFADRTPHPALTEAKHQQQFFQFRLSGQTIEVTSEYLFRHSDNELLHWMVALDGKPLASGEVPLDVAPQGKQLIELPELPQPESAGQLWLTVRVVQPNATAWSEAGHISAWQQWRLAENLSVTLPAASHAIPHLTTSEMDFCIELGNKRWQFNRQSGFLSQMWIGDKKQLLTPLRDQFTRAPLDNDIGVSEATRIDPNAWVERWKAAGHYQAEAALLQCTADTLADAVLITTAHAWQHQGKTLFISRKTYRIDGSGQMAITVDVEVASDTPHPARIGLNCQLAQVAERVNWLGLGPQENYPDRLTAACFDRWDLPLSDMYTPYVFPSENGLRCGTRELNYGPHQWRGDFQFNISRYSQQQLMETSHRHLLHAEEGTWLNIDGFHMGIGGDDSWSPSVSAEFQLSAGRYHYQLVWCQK

[7] = biological target: T1, Kappa-type opioid receptor (Homo sapiens, UniProt P41145); format: functional
T1 sequence (P41145 whole entry): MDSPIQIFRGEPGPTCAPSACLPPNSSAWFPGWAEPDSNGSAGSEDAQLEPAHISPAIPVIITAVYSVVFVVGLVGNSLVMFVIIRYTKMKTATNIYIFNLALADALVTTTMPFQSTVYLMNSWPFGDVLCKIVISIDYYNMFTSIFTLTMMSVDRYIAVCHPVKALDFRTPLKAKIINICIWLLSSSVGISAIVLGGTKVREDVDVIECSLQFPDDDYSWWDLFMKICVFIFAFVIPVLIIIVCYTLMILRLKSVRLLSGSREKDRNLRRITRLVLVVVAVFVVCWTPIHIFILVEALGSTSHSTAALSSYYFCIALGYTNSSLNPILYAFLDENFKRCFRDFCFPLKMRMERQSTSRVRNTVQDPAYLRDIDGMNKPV

[8] = biological target: T1, Kappa-type opioid receptor; format: functional; remark: listed apart in the source
[9] = biological target: Voltage-dependent T-type calcium channel subunit alpha-1H (Homo sapiens, UniProt O95180); format: functional;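 also: channel activity triggered by adding a high calcium stimulation buffer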
[10] = biological target: T2, Adenosylmethionine-8-amino-7-oxononanoate aminotransferase (Mycobacterium tuberculosis, UniProt P9WQ81); test: Mycobacterium tuberculosis BioA enzyme inhibitor Measured in Biochemical System Using Plate Reader - 2163-02_Inhibitor_Dose_CherryPick_Activity.; format: functional, Mycobacterium tuberculosis UT205
T2 sequence (P9WQ81 whole entry): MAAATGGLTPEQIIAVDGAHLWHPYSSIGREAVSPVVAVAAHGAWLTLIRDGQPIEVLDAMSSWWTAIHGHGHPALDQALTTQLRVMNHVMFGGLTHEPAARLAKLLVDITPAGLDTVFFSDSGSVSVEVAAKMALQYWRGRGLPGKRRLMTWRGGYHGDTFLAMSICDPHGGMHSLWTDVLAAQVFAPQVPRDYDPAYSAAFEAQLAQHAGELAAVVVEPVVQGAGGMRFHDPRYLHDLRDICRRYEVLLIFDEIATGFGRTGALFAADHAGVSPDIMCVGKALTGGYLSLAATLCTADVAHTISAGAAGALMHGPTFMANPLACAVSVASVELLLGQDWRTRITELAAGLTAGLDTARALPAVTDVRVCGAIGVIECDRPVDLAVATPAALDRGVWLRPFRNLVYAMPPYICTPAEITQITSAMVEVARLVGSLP

[11] = viability loss in HEK293 cells – cell-based, plate reader, cherry-picked samples, cytotoxicity control, dose response (AID 743446); format: functional
[12] = system: INS1; test: INS-1E survival protection against cytokine death – cell-based, luminescence, retest, dose response (AID 449756); format: functional; conditions: Rattus norvegicus;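 also: cell death triggered by IL-1 beta plus TNF-alpha plus IFN-gamma mixture; protective hits raise ATP signal compared with cytokine alone wells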
[13] = toxicity toward HepG2 liver cells – cell-based, plate reader, cherry-pick, antagonist series, cytotoxicity control, dose response (AID 743416); format: functional
[14] = A549 cell cytotoxicity, dose response, cytotoxicity control, plate reader, cherry-pick, antagonist series (AID 743412); format: functional, cell-based
[15] = Luminescence Cell-Based Dose Retest to Confirm Inhibitors of Cancer Stem Cells. [Related pubchem assays (depositor defined):AID2717, AID2721]; format: functional; conditions: Homo sapiens
[16] = blockade of melanocortin 4 receptor signaling – cell-based, plate reader, cherry pick, counter-screen for LGR2 antagonist project, dose response (AID 743444); format: functional;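 also: transfected HEK 293 cells stimulated with alpha-MSH peptide; potency of inhibitors of the alpha-MSH evoked signal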
[17] = biological target: T3, Low molecular weight phosphotyrosine protein phosphatase (Homo sapiens, UniProt P24666); format: functional; conditions: read-out: IC50_Mean;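 also: Dose-response confirmation assay measuring inhibition of LMPTP enzyme activity by fluorescence intensity read-out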
T3 sequence (P24666 whole entry): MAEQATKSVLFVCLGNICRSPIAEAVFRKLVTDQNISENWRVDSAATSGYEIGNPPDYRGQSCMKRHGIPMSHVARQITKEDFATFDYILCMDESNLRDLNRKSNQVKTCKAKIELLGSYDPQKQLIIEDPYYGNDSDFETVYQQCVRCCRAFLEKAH

[18] = blockers of bursicon-stimulated LGR2 cAMP reporter – cell-based, HEK293, CRE-luciferase reporter, cherry pick, set 2, dose response (AID 743343); format: functional;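 also: transfected cells were stimulated with diluted bursicon conditioned medium after compound addition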
[19] = system: Vero; test: cells; format: functional, cell-based; conditions: Chlorocebus sabaeus
[20] = system: Vero; test: cells; format: functional; conditions: Chlorocebus sabaeus
[21] = biological target: Fatty acid synthase (Homo sapiens, UniProt P49327); test: inhibition of human FAS-TE enzyme activity – biochemical, kinetic fluorescence intensity, dose response (AID 624326); format: functional;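 also: rate of fluorescence rise from hydrolysis of a fluorogenic O-methyl fluorescein ester substrate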
[22] = cells; format: functional, cell-based
[23] = biological target: T4, Nuclear receptor subfamily 0 group B member 1 (Homo sapiens, UniProt P51843); format: functional, cell-based;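 also: HEK293T cells transfected with SF-1 and DAX-1 plus StAR promoter luciferase reporter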
T4 sequence (P51843 whole entry): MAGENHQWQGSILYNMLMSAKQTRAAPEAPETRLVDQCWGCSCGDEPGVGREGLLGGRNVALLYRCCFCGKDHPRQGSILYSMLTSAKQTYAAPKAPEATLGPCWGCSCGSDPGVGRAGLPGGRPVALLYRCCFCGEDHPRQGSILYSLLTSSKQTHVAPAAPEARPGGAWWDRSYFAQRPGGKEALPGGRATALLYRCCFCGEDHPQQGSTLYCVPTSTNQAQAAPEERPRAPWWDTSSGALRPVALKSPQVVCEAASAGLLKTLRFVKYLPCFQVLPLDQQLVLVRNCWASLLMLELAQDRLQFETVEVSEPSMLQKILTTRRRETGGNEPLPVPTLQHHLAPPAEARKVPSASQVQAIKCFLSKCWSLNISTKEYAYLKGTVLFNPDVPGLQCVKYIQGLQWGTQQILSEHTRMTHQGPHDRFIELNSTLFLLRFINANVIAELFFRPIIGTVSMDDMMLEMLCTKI

[24] = biological target: T5, DNA repair protein RAD52 homolog (Homo sapiens, UniProt P43351); format: functional, biochemical
T5 sequence (P43351 whole entry): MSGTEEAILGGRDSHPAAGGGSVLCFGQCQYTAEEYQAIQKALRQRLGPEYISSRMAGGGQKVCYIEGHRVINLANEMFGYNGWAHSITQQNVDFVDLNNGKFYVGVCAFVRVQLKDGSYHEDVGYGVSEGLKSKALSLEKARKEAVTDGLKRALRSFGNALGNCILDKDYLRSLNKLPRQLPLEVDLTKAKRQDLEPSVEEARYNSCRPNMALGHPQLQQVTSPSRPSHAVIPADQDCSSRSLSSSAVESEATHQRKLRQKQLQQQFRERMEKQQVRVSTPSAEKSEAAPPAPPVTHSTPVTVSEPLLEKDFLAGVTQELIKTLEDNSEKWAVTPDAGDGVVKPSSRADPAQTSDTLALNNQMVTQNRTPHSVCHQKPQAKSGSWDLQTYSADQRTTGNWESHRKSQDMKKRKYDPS

[25] = biological target: T6, DNA repair and recombination protein RAD54-like (Homo sapiens, UniProt Q92698); test: RAD54 Holliday junction migration blockers – biochemical, fluorescence, cherry-picked samples, dose series, confirmation (AID 651657); format: functional
T6 sequence (Q92698 whole entry): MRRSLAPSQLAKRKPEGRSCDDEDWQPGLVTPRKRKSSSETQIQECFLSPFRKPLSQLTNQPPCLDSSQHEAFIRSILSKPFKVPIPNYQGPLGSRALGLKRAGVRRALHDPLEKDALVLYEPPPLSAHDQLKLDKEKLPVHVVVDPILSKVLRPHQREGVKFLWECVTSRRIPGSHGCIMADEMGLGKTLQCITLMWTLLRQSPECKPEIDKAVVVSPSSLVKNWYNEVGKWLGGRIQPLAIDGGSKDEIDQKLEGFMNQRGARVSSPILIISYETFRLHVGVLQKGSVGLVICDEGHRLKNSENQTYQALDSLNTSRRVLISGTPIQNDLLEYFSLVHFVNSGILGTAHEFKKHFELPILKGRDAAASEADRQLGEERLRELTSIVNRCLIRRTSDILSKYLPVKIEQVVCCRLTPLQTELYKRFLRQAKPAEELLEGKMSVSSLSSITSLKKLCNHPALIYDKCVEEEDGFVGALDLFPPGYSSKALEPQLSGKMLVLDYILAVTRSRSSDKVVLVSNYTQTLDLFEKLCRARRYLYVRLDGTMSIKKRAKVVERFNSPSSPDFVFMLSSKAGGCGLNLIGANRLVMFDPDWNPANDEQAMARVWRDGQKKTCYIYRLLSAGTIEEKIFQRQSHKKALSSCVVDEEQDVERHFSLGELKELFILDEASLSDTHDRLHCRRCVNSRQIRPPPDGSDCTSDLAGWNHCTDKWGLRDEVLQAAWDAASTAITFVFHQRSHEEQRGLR

Sequence of Mu-type opioid receptor (P35372 whole entry): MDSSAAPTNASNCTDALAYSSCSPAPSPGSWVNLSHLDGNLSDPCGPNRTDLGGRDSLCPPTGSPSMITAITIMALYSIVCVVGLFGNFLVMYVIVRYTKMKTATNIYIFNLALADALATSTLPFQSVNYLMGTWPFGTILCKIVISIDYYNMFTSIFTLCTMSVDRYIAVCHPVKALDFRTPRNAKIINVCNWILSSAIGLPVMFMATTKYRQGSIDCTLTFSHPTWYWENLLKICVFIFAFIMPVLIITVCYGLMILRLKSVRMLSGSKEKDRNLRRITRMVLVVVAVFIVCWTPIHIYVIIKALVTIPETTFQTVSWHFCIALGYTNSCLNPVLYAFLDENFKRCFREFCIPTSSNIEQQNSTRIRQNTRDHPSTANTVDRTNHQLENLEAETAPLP

With `Clc1ccccc1CN1CCN(c2ccccc2)CC1` the EC50 [1] was 92.5 µM (inactive) and the EC50 [2] was 0.553 µM (active).
For `N#C/C(=C\c1cn(CCOc2ccccc2)c2ccccc12)C(=O)NCc1ccco1`, the EC50 [3] was > 89.2 µM (inactive).
With `Cn1c(C(=O)N2CCc3ccccc3C2)cc2oc3ccccc3c21` the IC50 [4] was 6.99 µM (active).
For `CCSc1nnc(NC(=O)c2csc3c2CCCC3)s1`, the EC50 [3] was > 89.2 µM (inactive).
For `COc1ccc(-n2nc(C#N)c(Cl)cc2=O)cc1`, the AC50 [5] was 3.52 µM (active), the EC50 [6] was > 31.5 µM (inactive) and the IC50 [7] was 7.21 µM (active). The IC50 [8] was 14 µM.
In the case of `Cc1cccc(-c2nc(CN3CCCC(C(=O)NC4CCCCCC4)C3)c(C)o2)c1` (configuration not stated), the EC50 [9] is reported as 5.56 µM (active) and the IC50 [4] is reported as 7.19 µM (active).
With `CC(=O)c1ccc(C(=O)N2CCCC(Nc3ccccc3)C2)s1` (configuration not stated) the AC50 [10] was 5.18 µM (active).
With `O=C(Nc1ccc(Cl)cc1)Nc1nnc(-c2ccncc2)s1` the AC50 [11] was 2.98 µM (active), the AC50 [12] was 3.54 µM (active) and the AC50 [13] was 5.88 µM (active). For the same compound, the AC50 [14] was 15.5 µM (active), the AC50 [15] was 1.17 µM (active) and the AC50 [16] was 1.74 µM (active). For the same compound, the IC50 [17] was 30.6 µM (inactive) and the AC50 [18] was 3.51 µM (active).
For `Cc1ccc(-n2ncc3c(SCc4ccccn4)ncnc32)c(C)c1`, the IC50 [19] was 1.6 µM (active) and the CC50 [20] was > 25 µM (active).
In the case of `Nc1n[nH]c(N2CCN(Cc3ccccc3)CC2)n1`, the EC50 [1] is reported as 92.5 µM (inactive) and the EC50 [2] is reported as 5.59 µM (active).
With `O=C(CC(c1ccccc1)c1ccccc1)NCC(O)c1ccc([N+](=O)[O-])cc1` (configuration not stated) the IC50 [21] was 13.5 µM (active).
In the case of `Nc1nc(CN2CCN(c3ccccn3)CC2)nc(Nc2ccc(Cl)cc2)n1`, the EC50 [1] is reported as 92.5 µM (inactive) and the EC50 [2] is reported as 1.51 µM (active).
For `COc1cccc(/C=C/C(=O)NNC(=O)c2ccccc2)c1OC`, the IC50 [22] was > 67.6 µM (inactive) and the IC50 [23] was > 67.6 µM (inactive).
In the case of `CC(=O)Nc1cc(-c2cccc(NS(C)(=O)=O)c2)cn2c(-c3ccccc3)cnc12`, the EC50 [3] is reported as > 89.2 µM (inactive).
In the case of `OC[C@H]1O[C@H](c2nc(-c3nc(-c4cccs4)no3)cs2)C[C@@H]1O`, the IC50 [22] is reported as > 67.5 µM (inactive) and the IC50 [23] is reported as > 67.5 µM (inactive).
In the case of `O=C(NCc1ccco1)c1ccc(-c2ccc3nccn3c2)cc1`, the AC50 [10] is reported as 1.64 µM (active).
With `O=C(c1ccc(C[S+]([O-])c2ccccc2Cl)o1)N1CCN(C2CCCCC2)CC1` (configuration not stated) the IC50 [22] was > 67.5 µM (inactive) and the IC50 [23] was > 67.5 µM (inactive).
In the case of `COc1ccc(Cc2c(-c3ccc(OC)c(OC)c3)nc3c(C)cc(Br)cn23)c(C)c1`, the AC50 [24] is reported as 15.5 µM (active), the AC50 [25] is reported as 14.8 µM (active) and the AC50 [10] is reported as 6.62 µM (active).
For `Cc1nn(-c2ccccc2)c(O)c1/C=N/N1C(=O)c2cccc3cccc(c23)C1=O`, the EC50 [6] was > 31.5 µM (inactive), the IC50 [7] was 10.3 µM (active) and the IC50 [8] was greater than 32 µM. For the same compound, the CC50 [20] was > 25 µM (active).
